Patent publication US20250312416A1, “METHOD AND PHARMACEUTICAL COMPOSITION FOR CARTILAGE REGENERATION” (FAR EASTERN MEMORIAL HOSPITAL, priority 2024, published 2025)
“Also recorded” adds a separate entry of the source.

Experiments:
UC-MSCs [1] = assay: Alcian blue staining of chondrogenic pellets (GAG), UC-MSCs; type: cell-based; details: in the presence of TGF-beta
Text: (§1) FIG. 13A provides flowchart illustrating the protocol for peptide treatment and sample collection. […] TGF-beta influenced the expression of chondrogenic genes, including ITGB1 and COMP. […] Treatment with CXCL14/CXCL12 peptides increased GAG content during chondrogenesis in the presence of TGF-beta.
(§2) To further validate the role of CXCL14-P and CXCL12-P in regulating chondrogenesis, we compared their effects on another MSC source, umbilical cord-derived mesenchymal stem cells (UC-MSCs). It is important to note that the chondrogenic induction medium contained TGF-β. During chondrogenesis, we observed that the chondrogenic patterns in UC-MSCs were lower than those in ADSCs (FIG. 12). Subsequently, we assessed the chondrogenic potential of UC-MSCs following stimulation with CXCL14-P and CXCL12-P (FIG. 13A). […] Although the expression of chondrogenic genes (FIG. 13B) and GAG content (FIG. 13C) in UC-MSCs was not as pronounced as in ADSCs, the findings confirm that CXCL14-P and CXCL12-P can robustly stimulate chondrogenesis across different MSC sources.

UC-MSCs [2] = assay: Real-time PCR of chondrogenic genes in UC-MSCs; type: cell-based; details: day 7 of peptide treatment
Text: as §1, §2

clinical-grade ADSCs = assay: Alcian blue staining of chondrogenic pellets (GAG), ADSCs; type: cell-based, human
Description: The chondrogenic differentiation of pellets containing clinical-grade ADSCs was assessed through Alcian blue staining.
The chondrogenic differentiation of pellets containing clinical-grade ADSCs was evaluated using Alcian blue staining.
Alcian blue staining was used to assess the chondrogenic differentiation of ADSC pellets. […] Treatment with CXCL14-PM1, CXCL14-PM2, CXCL14-PM3, and CXCR4-PM1 was sufficient to enhance the expression of chondrogenic genes in ADSCs. On day 7, real-time PCR was performed to analyze the expression of key chondrogenic markers, including SOX9, COL2A1, COMP, ACAN, ITGB1, CXCL14, and CXCR4, in ADSCs treated with these modified peptides. ADSCs were exposed to distinct peptide modifications derived from CXCL12, CXCL14, and CXCR4 at a concentration of 10 ng for a one-day treatment, after which the medium was replaced with fresh peptide-free medium. At the end of the treatment period, RNA was extracted to evaluate the expression levels of chondrogenesis-related cytokine genes. Gene expression quantification was performed using a LightCycler system (Roche Applied Science), and fold changes were calculated relative to untreated control ADSCs. […] FIG. 16(D) provides a summary of the results for alanine substitution with positively or negatively charged amino acids in CXCL12, CXCL14, and CXCR4 peptides.
To assess differentiation capacity, single-cell suspensions from cultured IPFP-MSCs and ADSCs were cultivated in chondrogenic medium. Alcian Blue staining was performed on day 7 to evaluate chondrogenic differentiation. The chondrogenic differentiation test was measured gene expressions of ACAN, COL2A1, SOX9, COMP, ITGB1, CXCL14 and SOSTDC1.

ITTKSVSRYRGQEH [CXCL14-P]
GAG content (Alcian blue) (UC-MSCs [1]): increased
chondrogenic gene expression (COMP, SOX9, COL2A1, ACAN, ITGB1) (UC-MSCs [2]): significantly upregulated
GAG content (Alcian blue) (clinical-grade ADSCs; in the absence of TGF-β): evident
GAG content (Alcian blue) (clinical-grade ADSCs; in the presence of TGF-beta): significantly increased
GAG content (Alcian blue) (clinical-grade ADSCs; peptides compared to CXCL14/CXCL12 proteins, listed as CXCL14 peptide): significantly higher; also recorded: greater ability
